Reference: the supplement of paper PMC13380429

What was measured:
[1] = test system: A549-ACE2 infected with SARS-CoV-2; assay: cell count relative to DMSO; higher = less toxic; settings: 24 h
A549-ACE2 [2] = assay: drug-induced phospholipidosis relative to tamoxifen; higher = more phospholipidosis
U2OS [3] = assay: drug sensitivity score (DSS) for viability; higher = more toxic; extreme values may be limits of the assay; settings: 72 h
HepG2 [4] = assay: as above; settings: 72 h
Calu-3 [5] = assay: as above; settings: 72 h
Caco-2 [6] = assay: as above; settings: 72 h
Vero E6 [7] = assay: as above; settings: 72 h
[8] = test system: A549-ACE2 infected with SARS-CoV-2; assay: morphology score (similarity to uninfected cells); higher = more like uninfected cells; settings: 24 h
[9] = test system: A549-ACE2 infected with SARS-CoV-2; assay: SARS-CoV-2 infection rate relative to DMSO; higher = more infection; settings: 24 h
U2OS [10] = assay: relative viability EC50 (midpoint between 100% and the lowest measured viability); higher = less toxic; settings: 72 h
HepG2 [11] = assay: as above; settings: 72 h
Calu-3 [12] = assay: as above; settings: 72 h
Caco-2 [13] = assay: as above; settings: 72 h
Vero E6 [14] = assay: as above; settings: 72 h
A549-ACE2 [15] = assay: phospholipidosis EC50; higher = less potent phospholipidosis inducer
U2OS [16] = assay: cell viability relative to DMSO; higher = less toxic; settings: 72 h
HepG2 [17] = assay: as above; settings: 72 h
Calu-3 [18] = assay: as above; settings: 72 h
Caco-2 [19] = assay: as above; settings: 72 h
Vero E6 [20] = assay: as above; settings: 72 h

COc1cc2c(NC3CCN(C(C)C)CC3)nc(C3CCCCC3)nc2cc1OCCCN1CCCC1 [UNC0638]
Settings | SARS-CoV-2 infection rate [%] | cell count [%] | cell viability [%] | morphology score | phospholipidosis EC50 [µM]
A549-ACE2 [15], 24 h | – | – | – | – | 0.85
A549-ACE2 [15], 48 h | – | – | – | – | 0.916
A549-ACE2 [15], 72 h | – | – | – | – | 2.15
Caco-2 [19], 1 nM | – | – | 99.2 | – | –
Caco-2 [19], 10 nM | – | – | 95.3 | – | –
Caco-2 [19], 100 nM | – | – | 98.5 | – | –
Caco-2 [19], 1000 nM | – | – | 96.7 | – | –
Caco-2 [19], 10000 nM | – | – | 90.3 | – | –
Calu-3 [18], 1 nM | – | – | 108 | – | –
Calu-3 [18], 10 nM | – | – | 106 | – | –
Calu-3 [18], 100 nM | – | – | 105 | – | –
Calu-3 [18], 1000 nM | – | – | 109 | – | –
Calu-3 [18], 10000 nM | – | – | 14.4 | – | –
HepG2 [17], 1 nM | – | – | 91.9 | – | –
HepG2 [17], 10 nM | – | – | 103 | – | –
HepG2 [17], 100 nM | – | – | 107 | – | –
HepG2 [17], 1000 nM | – | – | 114 | – | –
HepG2 [17], 10000 nM | – | – | 28.9 | – | –
U2OS [16], 1 nM | – | – | 103 | – | –
U2OS [16], 10 nM | – | – | 104 | – | –
U2OS [16], 100 nM | – | – | 99.7 | – | –
U2OS [16], 1000 nM | – | – | 98.5 | – | –
U2OS [16], 10000 nM | – | – | 79.5 | – | –
Vero E6 [20], 1 nM | – | – | 104 | – | –
Vero E6 [20], 10 nM | – | – | 106 | – | –
Vero E6 [20], 100 nM | – | – | 101 | – | –
Vero E6 [20], 1000 nM | – | – | 99.2 | – | –
Vero E6 [20], 10000 nM | – | – | 91.5 | – | –
[1], 0.3 µM | – | 104 | – | – | –
[1], 3 µM | – | 120 | – | – | –
[1], 10 µM | – | 120 | – | – | –
[1], 30 µM | – | 85 | – | – | –
[8], 0.3 µM | – | – | – | 0.28 | –
[8], 3 µM | – | – | – | 0.76 | –
[8], 10 µM | – | – | – | 0.07 | –
[8], 30 µM | – | – | – | -0.22 | –
[9], 0.3 µM | 92 | – | – | – | –
[9], 3 µM | 21 | – | – | – | –
[9], 10 µM | 13 | – | – | – | –
[9], 30 µM | 37 | – | – | – | –

drug-induced phospholipidosis [%], A549-ACE2 [2]
Settings | 0.3 µM | 0.833333 µM | 3.33333 µM | 6.66667 µM | 10 µM | 30 µM
24 h | 19 | 47.5 | 80.5 | 93.8 | 106 | 38.3
48 h | 20.5 | 48.8 | 76.7 | 97.3 | 89.8 | –
72 h | 16 | 32 | 73.7 | 84.2 | 95.7 | –

Settings | drug sensitivity score | relative viability EC50 [µM]
Caco-2 [6] | 0 | –
Caco-2 [13] | – | > 10
Calu-3 [5] | 4.1 | –
Calu-3 [12] | – | 3.67
HepG2 [4] | 3.1 | –
HepG2 [11] | – | 3.92
U2OS [3] | 0.8 | –
U2OS [10] | – | > 10
Vero E6 [7] | 0 | –
Vero E6 [14] | – | > 10

CCOC(=O)C1=C(COCCN)NC(C)=C(C(=O)OC)C1c1ccccc1Cl (stereo not given) [amlodipine]
Settings | SARS-CoV-2 infection rate [%] | cell count [%] | cell viability [%] | morphology score | phospholipidosis EC50 [µM]
A549-ACE2 [15], 24 h | – | – | – | – | 10.9
Caco-2 [19], 1 nM | – | – | 97.9 | – | –
Caco-2 [19], 10 nM | – | – | 102 | – | –
Caco-2 [19], 100 nM | – | – | 98.2 | – | –
Caco-2 [19], 1000 nM | – | – | 93.5 | – | –
Caco-2 [19], 10000 nM | – | – | 94.2 | – | –
Calu-3 [18], 1 nM | – | – | 93.6 | – | –
Calu-3 [18], 10 nM | – | – | 104 | – | –
Calu-3 [18], 100 nM | – | – | 94.1 | – | –
Calu-3 [18], 1000 nM | – | – | 102 | – | –
Calu-3 [18], 10000 nM | – | – | 93.9 | – | –
HepG2 [17], 1 nM | – | – | 97.7 | – | –
HepG2 [17], 10 nM | – | – | 98.1 | – | –
HepG2 [17], 100 nM | – | – | 91.2 | – | –
HepG2 [17], 1000 nM | – | – | 99.2 | – | –
HepG2 [17], 10000 nM | – | – | 96.4 | – | –
U2OS [16], 1 nM | – | – | 94.8 | – | –
U2OS [16], 10 nM | – | – | 102 | – | –
U2OS [16], 100 nM | – | – | 96.6 | – | –
U2OS [16], 1000 nM | – | – | 101 | – | –
U2OS [16], 10000 nM | – | – | 97.5 | – | –
Vero E6 [20], 1 nM | – | – | 96.7 | – | –
Vero E6 [20], 10 nM | – | – | 90.2 | – | –
Vero E6 [20], 100 nM | – | – | 91.1 | – | –
Vero E6 [20], 1000 nM | – | – | 84.8 | – | –
Vero E6 [20], 10000 nM | – | – | 96.1 | – | –
[1], 0.3 µM | – | 96 | – | – | –
[1], 3 µM | – | 112 | – | – | –
[1], 10 µM | – | 119 | – | – | –
[1], 30 µM | – | 91 | – | – | –
[8], 0.3 µM | – | – | – | -0.27 | –
[8], 3 µM | – | – | – | 0.49 | –
[8], 10 µM | – | – | – | 0.92 | –
[8], 30 µM | – | – | – | 0.35 | –
[9], 0.3 µM | 107 | – | – | – | –
[9], 3 µM | 79 | – | – | – | –
[9], 10 µM | 23 | – | – | – | –
[9], 30 µM | 30 | – | – | – | –

drug-induced phospholipidosis [%], A549-ACE2 [2]
Settings | 0.3 µM | 0.833333 µM | 3.33333 µM | 6.66667 µM | 10 µM | 30 µM
24 h | 4.07 | -2.24 | 14.4 | 39.7 | 58.4 | 105
48 h | 3.72 | 0.34 | 10.8 | 17.5 | 37 | 187
72 h | 5.62 | -0.058 | 6.8 | 13.1 | 21 | 181

Settings | drug sensitivity score | relative viability EC50 [µM]
Caco-2 [6] | 0 | –
Caco-2 [13] | – | > 10
Calu-3 [5] | 0 | –
Calu-3 [12] | – | > 10
HepG2 [4] | 0 | –
HepG2 [11] | – | > 10
U2OS [3] | 0 | –
U2OS [10] | – | > 10
Vero E6 [7] | 0 | –
Vero E6 [14] | – | > 10

CN1CCN(C2CCN(C(=O)Nc3cc(Oc4ccc(NC(=O)C5(C(=O)Nc6ccc(F)cc6)CC5)c(F)c4)ccn3)CC2)CC1 [golvatinib]
Settings | SARS-CoV-2 infection rate [%] | cell count [%] | cell viability [%] | morphology score | phospholipidosis EC50 [µM]
A549-ACE2 [15], 24 h | – | – | – | – | 4.22
A549-ACE2 [15], 48 h | – | – | – | – | 9.68
A549-ACE2 [15], 72 h | – | – | – | – | 11.3
Caco-2 [19], 1 nM | – | – | 102 | – | –
Caco-2 [19], 10 nM | – | – | 89.1 | – | –
Caco-2 [19], 100 nM | – | – | 95 | – | –
Caco-2 [19], 1000 nM | – | – | 87.9 | – | –
Caco-2 [19], 10000 nM | – | – | 44.2 | – | –
Calu-3 [18], 1 nM | – | – | 92.4 | – | –
Calu-3 [18], 10 nM | – | – | 105 | – | –
Calu-3 [18], 100 nM | – | – | 97.1 | – | –
Calu-3 [18], 1000 nM | – | – | 106 | – | –
Calu-3 [18], 10000 nM | – | – | 63.4 | – | –
HepG2 [17], 1 nM | – | – | 97.8 | – | –
HepG2 [17], 10 nM | – | – | 95.5 | – | –
HepG2 [17], 100 nM | – | – | 102 | – | –
HepG2 [17], 1000 nM | – | – | 77.6 | – | –
HepG2 [17], 10000 nM | – | – | 1.4 | – | –
U2OS [16], 1 nM | – | – | 96.7 | – | –
U2OS [16], 10 nM | – | – | 102 | – | –
U2OS [16], 100 nM | – | – | 97.6 | – | –
U2OS [16], 1000 nM | – | – | 104 | – | –
U2OS [16], 10000 nM | – | – | 61.2 | – | –
Vero E6 [20], 1 nM | – | – | 95.3 | – | –
Vero E6 [20], 10 nM | – | – | 97.5 | – | –
Vero E6 [20], 100 nM | – | – | 95 | – | –
Vero E6 [20], 1000 nM | – | – | 91.3 | – | –
Vero E6 [20], 10000 nM | – | – | 59.6 | – | –
[1], 0.1 µM | – | 94 | – | – | –
[1], 0.3 µM | – | 101 | – | – | –
[1], 1 µM | – | 103 | – | – | –
[1], 3 µM | – | 110 | – | – | –
[8], 0.1 µM | – | – | – | -0.16 | –
[8], 0.3 µM | – | – | – | -0.14 | –
[8], 1 µM | – | – | – | 0.12 | –
[8], 3 µM | – | – | – | 0.64 | –
[9], 0.1 µM | 107 | – | – | – | –
[9], 0.3 µM | 104 | – | – | – | –
[9], 1 µM | 95 | – | – | – | –
[9], 3 µM | 50 | – | – | – | –

drug-induced phospholipidosis [%], A549-ACE2 [2]
Settings | 0.3 µM | 0.833333 µM | 3.33333 µM | 6.66667 µM | 10 µM | 30 µM
24 h | 1.8 | 1.61 | 20.9 | 69 | 79.8 | 76.4
48 h | 3.53 | 3.1 | 11.1 | 42.2 | 75.9 | –
72 h | 5.78 | 3.08 | 10.8 | 36.2 | 67.2 | –

Settings | drug sensitivity score | relative viability EC50 [µM]
Caco-2 [6] | 5 | –
Caco-2 [13] | – | 1.66
Calu-3 [5] | 1.4 | –
HepG2 [4] | 9 | –
HepG2 [11] | – | 1.63
U2OS [3] | 1.6 | –
Vero E6 [7] | 3.4 | –
